Results as given in US9284350B2, “IAP BIR domain binding compounds” (Pharmascience Inc., priority 2010, dated 2016).

How the values were obtained:
[1] = target: T1, XIAP (Homo sapiens, UniProt P98170); assay: Fluorescence polarization-based competition assay, XIAP; type: binding; conditions: FP assay, ki derived from IC50
T1 construct: fused on or other part: GST tag at the N-terminus (pGEX4T vectors)
Experimental: (§1) Binding of compounds of Formula 1 to target BIR domains was measured using a fluorescence-polarization (FP) assay. Fluorescence-polarization was evaluated using a GENios microplate reader (TECAN) Pro instrument with the excitation filter set at 485 nm and the emission filter set at 535 nm. The final amount of protein used in the assay corresponds to the amount of protein necessary to obtain 80% of the maximum FP value in a P1 or P2 fluorescent (FITC) probe saturation experiment. The compounds potency (IC50) and selectivity, was assessed in the presence of the amount of target protein established, fluorescent probe, and a 10 point serial dilution in assay buffer (50 mM Hepes, pH 7.5, 250 mcg/mL γ-globulin, 2 mM DTT, 1% DMSO) of the selected compounds.
(§2) Assays were carried out in duplicate using untreated black 96-well plates (Corning #3915) and a total volume of 100 microliters, containing 25 microliters of fluorescent probe at a final concentration of 2 nM in assay buffer, 25 microliters of diluted compound, 25 microliters of BIR protein into assay buffer and 25 microliters of assay buffer. Buffer only (blank) or probe only in buffer (G-factor) were used as controls for calibration. The plate was incubated at room temperature in the dark for one hour and FP values in millipolarization units (mP) were recorded using Genios Pro FP reader.
(§3) The measured FP values (mP) were then plotted against compound concentration, and IC50 values were calculated based on a sigmoidal dose-response (variable-slope) curve fit using GraphPad Prism version 4.02 for Windows, GraphPad Software, San Diego Calif. USA and/or CambridgeSoft BioAssay Enterprise Version 10.1. The IC50 value is the concentration of test compound at which 50% of the tracer was displaced. ki values were derived from the calculated IC50 values as described above and according to the equation described in Nikolovska-Coleska, Z. (2004) Anal Biochem 332, 261-273. The results are presented in Table 2, wherein A=less than 25 nM; B=less than 250 nM; C=less than 1000 nM; and D=greater than 1000 nM.

[2] = target: T2, c-IAP1 (Homo sapiens, UniProt Q13490); assay: Fluorescence polarization-based competition assay, c-IAP1; type: binding; conditions: FP assay, ki derived from IC50
T2 construct: GST (N); made in house; host or cells: E. coli DH5α
T2 sequence (Q13490 251-363): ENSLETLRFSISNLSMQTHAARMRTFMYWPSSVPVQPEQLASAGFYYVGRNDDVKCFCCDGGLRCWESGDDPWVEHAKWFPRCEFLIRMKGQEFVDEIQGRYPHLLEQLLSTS
Experimental: as §1, §2, §3

[3] = system: Colorectal carcinoma HCT116 cells; assay: Cell death assay (MTT) in combination with HGS ETR1; type: cell-based; conditions: with HGS ETR1 30 ng/ml, 72 hours, read-out: HCT116+ mapatubimap EC50
Experimental: Colorectal carcinoma HCT116 cells were cultured as monolayers in 96 well plates at a density of 2000 cells per well in McCoy's 5a medium (HyClone) supplemented with 2.2 g/L sodium bicarbonate, 10% FBS (HyClone) and 1% penicillin/streptomycin (HyClone). 24 hours later, triplicate wells were treated with HGS ETR1 (30 ng/ml) in combination with compound. Cells were incubated in the presence of compound and HGS agonistic Trail receptor antibody, ETR1 (Mapatumamab, 30 ng/ml) for 72 hours. Metabolic viability of remaining cells was assessed by MTT (thiazolyl blue tetrazolium bromide, Sigma) assay.
EC50 values (50% cell survival in the presence of compound as compared to untreated controls) were calculated from survival curves using BioAssay software (CambridgeSoft) and GraphPad Prism (Graph Pad Software Inc.). The results are provided in Table 3, below, wherein A=less than 50 nM; B=less than 250 nM; C=less than 1000 nM; and D=greater than 1000 nM.

[4] = target: T3, cIAP2 (Homo sapiens, UniProt Q13489); assay: Fluorescence polarization-based competition assay, cIAP2; type: binding; conditions: FP assay, ki derived from IC50
T3 construct: GST (N); made in house; host or cells: E. coli DH5α
T3 sequence (Q13489 236-349): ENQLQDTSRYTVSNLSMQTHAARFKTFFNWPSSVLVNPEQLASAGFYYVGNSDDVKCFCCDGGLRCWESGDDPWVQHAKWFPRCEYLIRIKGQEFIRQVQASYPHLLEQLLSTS
Experimental: as §1, §2, §3

T1 sequence (P98170 246-497 limits assumed): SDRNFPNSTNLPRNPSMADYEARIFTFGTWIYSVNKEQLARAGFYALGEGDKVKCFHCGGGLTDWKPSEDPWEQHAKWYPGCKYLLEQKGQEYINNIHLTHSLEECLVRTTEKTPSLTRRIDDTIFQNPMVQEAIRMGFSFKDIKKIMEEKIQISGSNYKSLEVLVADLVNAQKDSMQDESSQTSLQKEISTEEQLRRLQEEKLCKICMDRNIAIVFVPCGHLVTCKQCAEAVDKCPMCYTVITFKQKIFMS

Compound	Ki [1]	Ki [2]	Ki [4]	EC50 [3]
CN[C@@H](C)C(=O)N[C@H](C(=O)N1C[C@@H](Oc2ccc(F)cc2)C[C@H]1CN(CCc1ccc(F)cc1)C(=O)c1cn2cccnc2n1)C(C)(C)C [Compound 65]	< 25 nM	< 25 nM	< 25 nM	< 50 nM
CN[C@@H](C)C(=O)N[C@H](C(=O)N1C[C@@H](Oc2ccc(F)cc2)C[C@H]1CN(CCc1ccc(F)cc1)C(=O)c1cn2cc(F)cnc2n1)[C@@H](C)OC [Compound 107]	< 250 nM	< 25 nM	< 25 nM	< 50 nM
CN[C@@H](C)C(=O)N[C@H](C(=O)N1C[C@@H](Oc2ccc(F)cc2)C[C@H]1CN(CCc1ccc(F)cc1)C(=O)c1cn2ccccc2n1)[C@@H](C)OC [Compound 102]	< 250 nM	< 25 nM	< 25 nM	< 50 nM
CN[C@@H](C)C(=O)N[C@H](C(=O)N1C[C@@H](Oc2ccc(F)cc2)C[C@H]1CN(CCc1ccc(F)cc1)C(=O)c1cn2cccnc2n1)[C@@H](C)OC [Compound 100]	< 250 nM	< 25 nM	< 25 nM	< 250 nM
CN[C@@H](C)C(=O)N[C@H](C(=O)N1CCC[C@H]1CN(CCc1ccc(F)cc1)C(=O)c1cn2c(n1)CCC2)C(C)(C)C [Compound 67]	< 250 nM	< 25 nM	< 25 nM	< 50 nM
CN[C@@H](C)C(=O)N[C@H](C(=O)N1C[C@@H](Oc2ccc(OC(F)(F)F)cc2)C[C@H]1CN(CCc1ccc(F)cc1)C(=O)c1cn2ccccc2n1)C(C)(C)C [Compound 111]	< 25 nM	< 25 nM	< 25 nM	< 50 nM
CN[C@@H](C)C(=O)N[C@H](C(=O)N1C[C@@H](Oc2ccc(OC)cc2)C[C@H]1CN(CCc1ccc(F)cc1)C(=O)c1cn(C)cn1)C(C)(C)C [Compound 96]	< 250 nM	< 25 nM	< 25 nM	< 50 nM
CN[C@@H](C)C(=O)N[C@H](C(=O)N1CCC[C@H]1CN(CCc1ccc(F)cc1)C(=O)c1ccn(-c2ccccc2)c1)C(C)(C)C [Compound 122]	< 250 nM	< 25 nM	< 25 nM	< 250 nM
CN[C@@H](C)C(=O)N[C@H](C(=O)N1CCC[C@H]1CN(CCc1ccc(F)cc1)C(=O)c1cc(-c2ccccc2)[nH]n1)C(C)(C)C [Compound 88]	< 250 nM	< 25 nM	< 25 nM	< 250 nM
CN[C@@H](C)C(=O)N[C@H](C(=O)N1C[C@@H](NC(=O)c2ccccc2)C[C@H]1CN(CCc1ccc(F)cc1)C(=O)c1cn2ccccc2n1)C(C)(C)C [Compound 69]	< 250 nM	< 25 nM	< 25 nM	< 250 nM
CN[C@@H](C)C(=O)N[C@H](C(=O)N1C[C@@H](NC(=O)c2ccccc2)C[C@H]1CN(CCc1ccc(F)cc1)C(=O)c1cn2cc(F)cnc2n1)C(C)(C)C [Compound 112]	< 250 nM	< 25 nM	< 25 nM	< 250 nM
CN[C@@H](C)C(=O)N[C@H](C(=O)N1C[C@@H](Oc2ccc(OC(F)(F)F)cc2)C[C@H]1CN(CCc1ccc(F)cc1)C(=O)c1cn(C)cn1)C(C)(C)C [Compound 97]	< 250 nM	< 25 nM	< 25 nM	< 50 nM
CN[C@@H](C)C(=O)N[C@H](C(=O)N1CCC[C@H]1CN(CCc1ccc(F)cc1)C(=O)c1nccn1C)[C@@H](C)OC [Compound 85]	< 1000 nM	< 25 nM	< 25 nM	< 50 nM
CN[C@@H](C)C(=O)N[C@H](C(=O)N1C[C@@H](Oc2ccc(OC)cc2)C[C@H]1CN(CCc1ccc(F)cc1)C(=O)c1cn2ccccc2n1)C(C)(C)C [Compound 105]	< 25 nM	< 25 nM	< 25 nM	< 50 nM
CN[C@@H](C)C(=O)N[C@H](C(=O)N1C[C@@H](Oc2ccc(F)cc2)C[C@H]1CN(CCc1ccc(F)cc1)C(=O)c1cn2cc(F)cnc2n1)C(C)(C)C [Compound 116]	< 25 nM	< 25 nM	< 25 nM	< 50 nM
CCO[C@H](C)[C@H](NC(=O)[C@H](C)NC)C(=O)N1CCC[C@H]1CN(CCc1ccc(F)cc1)C(=O)c1cn(C)cn1 [Compound 76]	< 250 nM	< 25 nM	< 25 nM	< 50 nM

Now from value to compound, other results behind:

Ki [1]	Ki [2]	Ki [4]	Compound	EC50 [3]
< 250 nM	< 25 nM	< 25 nM	CN[C@@H](C)C(=O)N[C@H](C(=O)N1CCC[C@H]1CN(CCc1ccc(F)cc1)C(=O)c1cn2cccnc2n1)C1CCCCC1 [Compound 20]	< 50 nM
< 250 nM	< 25 nM	< 25 nM	CN[C@@H](C)C(=O)N[C@H](C(=O)N1CCC[C@H]1CN(CCc1ccc(F)cc1)C(=O)c1cn(C)cn1)C1CCCCC1 [Compound 120]	< 50 nM
< 1000 nM	< 250 nM	< 250 nM	CCN[C@@H](C)C(=O)N[C@H](C(=O)N1CCC[C@H]1CN(CCc1ccccc1)C(=O)c1cn2cccnc2n1)C1CCOCC1 [Compound 4]	> 1000 nM
< 250 nM	< 25 nM	< 25 nM	C[C@H](N)C(=O)N[C@H](C(=O)N1CCC[C@H]1CN(CCc1ccc(F)cc1)C(=O)c1cn2cccnc2n1)C(C)(C)C [Compound 37]	> 1000 nM
< 250 nM	< 25 nM	< 25 nM	CN[C@@H](C)C(=O)N[C@H](C(=O)N1C[C@@H](NS(=O)(=O)c2ccccc2)C[C@H]1CN(CCc1ccc(F)cc1)C(=O)c1cn2cccnc2n1)C(C)(C)C [Compound 59]	< 1000 nM
< 250 nM	< 25 nM	< 25 nM	CN[C@@H](C)C(=O)N[C@H](C(=O)N1C[C@@H](Oc2ccccc2)C[C@H]1CN(CCc1ccc(F)cc1)C(=O)c1cn2cccnc2n1)C(C)(C)C [Compound 124]	< 50 nM
< 250 nM	< 25 nM	< 25 nM	CN[C@@H](C)C(=O)N[C@H](C(=O)N1CCC[C@H]1CN(CCc1ccc(F)cc1)C(=O)c1cn(C2CCCCC2)cn1)C(C)(C)C [Compound 93]	< 50 nM
< 1000 nM	< 25 nM	< 25 nM	CN[C@@H](C)C(=O)N[C@H](C(=O)N1C[C@@H](NC(=O)Cc2ccccc2)C[C@H]1CN(CCc1ccc(F)cc1)C(=O)c1cn2cccnc2n1)C(C)(C)C [Compound 56]	< 1000 nM
< 1000 nM	< 25 nM	< 250 nM	CN[C@@H](C)C(=O)N[C@H](C(=O)N1CCC[C@H]1CN(CCc1cccc(F)c1)C(=O)c1cn2cccnc2n1)C(C)(C)C [Compound 12]	< 250 nM
> 1000 nM	< 250 nM	< 250 nM	CCN[C@@H](C)C(=O)N[C@H](C(=O)N1CCC[C@H]1CN(CCc1ccccc1)C(=O)c1cn2cccnc2n1)C1CCCCC1 [Compound 2]	< 1000 nM
< 250 nM	< 25 nM	< 25 nM	CN[C@@H](C)C(=O)N[C@H](C(=O)N1CCC[C@H]1CN(CCc1ccc(F)cc1)C(=O)c1cc2ccccn2c1)C(C)(C)C [Compound 68]	< 250 nM
< 250 nM	< 25 nM	< 25 nM	CCO[C@H](C)[C@H](NC(=O)[C@H](C)NC)C(=O)N1CCC[C@H]1CN(CCc1ccc(F)cc1)C(=O)c1cn2cc(F)cnc2n1 [Compound 80]	< 50 nM
< 1000 nM	< 25 nM	< 25 nM	CN[C@@H](C)C(=O)N[C@H](C(=O)N1C[C@@H](NC(=O)c2ccccc2)C[C@H]1CN(CCc1ccc(F)cc1)C(=O)c1cn2cccnc2n1)C(C)(C)C [Compound 49]	< 250 nM
< 250 nM	< 25 nM	< 25 nM	CN[C@@H](C)C(=O)N[C@H](C(=O)N1CCC[C@H]1CN(CCc1ccc(F)cc1)C(=O)c1cn(-c2ccccc2)nn1)C(C)(C)C [Compound 50]	< 250 nM
